This data set relates to peripheral blood lymphocytes. The data set is described as follows: Cytokinesis-block micronucleus (CBMN) assay, spontaneous and NNK-induced chromosomal damage (MN, NPBs, NBUDs). The class given is cell-based, human. Conditions: 0.24 mM NNK, 2 hours. How it is done: The CBMN test was performed using the cytochalasin B technique described by Fenech and Morley and following recommendations from The International Collaborative Project on Micronucleus Frequency in Human Populations (HUMN Project) (22) to measure MN, NPBs and NBUDs in untreated cells and NNK-treated cells. Duplicate lymphocyte cultures were prepared for each study subject. Each culture contained 2.0×10^6 cells in 5 mL RPM1 1640 medium supplemented with 100 U/mL penicillin, 100 μg/mL streptomycin, 10% fetal bovine serum, and 2 mM L-glutamine (Gibco-Invitrogen, Carlsbad, Calif.) and 1% phytohemagglutinin (Remel, Lenexa, Kans.). For the cultures treated with NNK, 24 hours after initiation, the PBLs were centrifuged and the supernatant growth medium was removed and reserved. The PBLs were resuspended in 5 mL of serum-free RPM1 1640 medium supplemented with 0.24 mM NNK (CAS No 64091-91-4, National Cancer Institute, Midwest Carcinogen Repository, Kansas City, Mo.) and incubated at 37° C. in the presence of 5% COz for 2 hours. Next, the PBLs were washed twice with serum-free RPM1 1640, transferred to clean tubes and re-incubated for 48 hours in the reserved supernatant At 44 hours after initiation, cells were blocked in cytokinesis by adding cytochalasin B (Sigma, St Louis, Mo.; final concentration 4 μg/mL). Similarly, cultures for the determination of spontaneous damage (untreated cells) were handled in the same manner, with the exception of treatment with NNK. The total incubation time for all cultures was 72 hours. After incubation, the cells were fixed in 3:1 methanol:glacial acetic acid, dropped onto clean microscopic slides, air-dried and stained with Giemsa stain. For each sample, 1000 binucleated cells were scored blindly using a Nikon E-400 light optical microscope following the scoring criteria outlined by HUMN Project (2,11,23); the numbers of MN, NPBs, and NBUDs per 1000 binucleated cells were recorded For quality control, 20% of the slides were randomly selected and blindly rescored and the results compared with the original scoring
Tobacco smoke carcinogens and individual susceptibility play key roles in determining risk of lung cancer. There are a variety of biomarkers evaluating susceptibility to the carcinogenic effects of benzo[a]pyrene; however, no assays specifically evaluate susceptibility to the nicotine-derived nitrosamine 4-(methylnitrosamino)-1-(3-pyridyl)-1-butanone (NNK), a potent inducer of lung adenocarcinoma. In this case-control study, the inventors modified the cytokinesis-block micronucleus (CBMN) assay, an established biomarker for DNA damage and genomic instability, to evaluate susceptibility to NNK by measuring the frequency of NNK-induced chromosomal damage endpoints (micronuclei [MN]; nucleoplasmic bridges [NPBs] and nuclear buds “BUDS]) per 1000 binucleated peripheral blood lymphocytes. […] Forty-seven percent of the cases (compared with 12% of the controls) had ≧4 spontaneous MN, 66% of the cases (and no controls) had ≧4 spontaneous NPBs, and 25% of cases (versus 5% of controls) had ≧1 spontaneous NBUDs (P<001). Similarly, 40% of the cases (versus 6% of the controls) had ≧5 NNK-induced MN, 89% of the cases (and no controls) had ≧6 induced NPBs, and 23% of the cases (vs 2% of the controls had 2 induced NBUDs (P<001). As continuous variables, spontaneous MN, NPBs and NBUDs were associated with 2-, 29-, and 6-fold increases in risk for cancer. Similarly, NNK-induced 2 3-, 45.5-, and 10-fold increases in risk for cancer. The inventors also evaluated the use of results from the CBMN assay to predict cancer risk based on the numbers of MN, NPBs, and NBUDs defined by percentile cut-points in control data. The probability of being a cancer patient were 96%, 98% and 100% when using the 95th percentiles of spontaneous and NNK-induced MN, NPBs and NBUDs, respectively, in combination. […]

The structures appear in SMILES notation.

On to `CN(CCCC(=O)c1cccnc1)N=O` [NNK, 4-(methylnitrosamino)-1-(3-pyridyl)-1-butanone], for which, under “lung cancer cases (139)”, the “subjects with 2 induced NBUDs per 1000 binucleated peripheral blood lymphocytes” value came to 23%, the “subjects with ≧5 NNK-induced MN per 1000 binucleated peripheral blood lymphocytes” value was 40% and the “subjects with ≧6 induced NPBs per 1000 binucleated peripheral blood lymphocytes” value is given as 89%. Also, for the setting “matched controls (130)”, the “subjects with 2 induced NBUDs per 1000 binucleated peripheral blood lymphocytes” value is reported as 2%, the “subjects with ≧5 NNK-induced MN per 1000 binucleated peripheral blood lymphocytes” value stood at 6% and the “subjects with ≧6 induced NPBs per 1000 binucleated peripheral blood lymphocytes” value is on record as “no controls”.

Values taken from patent US20110189670A1, “Circulating Tumor and Tumor Stem Cell Detection Using Genomic Specific Probes” (priority 2008, published 2011).
